According to article PMC6969166, “The molecular basis of pyrazinamide activity on Mycobacterium tuberculosis PanD” (Nature Communications, 2020):

Biological target: Mtb PanD Arg54 to alanine (Mycobacterium tuberculosis, UniProt P9WIL3, R54A)
Type: binding

Q: For `O=C(O)c1cnccn1` [POA, pyrazinoic acid], which “binding in ITC” value is on record?
A: no binding
